This test concerns the target MAP kinase-activated protein kinase 2 (Homo sapiens, UniProt P49137). As to the kind of experiment: Not found. The procedure:
Briefly, 10× stock solutions of MK2 (PV3317, from Life Technologies), 1.13X ATP (AS001A), and Sox conjugated peptide substrate, S/T3-Sox, (KZN1031) were prepared in 1× kinase reaction buffer consisting of 20 mM Tris, pH 7.5, 5 mM MgCl2, 1 mM EGTA, 5 mM β-glycerophosphate, 5% glycerol (10× stock, KB001A) and 0.2 mM DTT (DS001A). Enzyme solution (5 μL) was added to each of DMSO ([…]) or serially diluted test compounds prepared in DMSO in a Corning (#3574) 384-well, white, non-binding surface microtiter plate (Corning, NY). Kinase reactions were started with the addition of 45 μL of the ATP-peptide substrate S/T3-Sox mix and monitored every 71 seconds for 120 minutes at λex360/λem485 in a Synergy H4 plate reader from BioTek (Winooski, VT) at room temperature.

For 5 molecules, IC50 results are on record in BindingDB's records for patent US20240190890 (Bristol-Myers Squibb, 2024).

Structures are written as SMILES.

Sequence of MAP kinase-activated protein kinase 2 (P49137 whole entry): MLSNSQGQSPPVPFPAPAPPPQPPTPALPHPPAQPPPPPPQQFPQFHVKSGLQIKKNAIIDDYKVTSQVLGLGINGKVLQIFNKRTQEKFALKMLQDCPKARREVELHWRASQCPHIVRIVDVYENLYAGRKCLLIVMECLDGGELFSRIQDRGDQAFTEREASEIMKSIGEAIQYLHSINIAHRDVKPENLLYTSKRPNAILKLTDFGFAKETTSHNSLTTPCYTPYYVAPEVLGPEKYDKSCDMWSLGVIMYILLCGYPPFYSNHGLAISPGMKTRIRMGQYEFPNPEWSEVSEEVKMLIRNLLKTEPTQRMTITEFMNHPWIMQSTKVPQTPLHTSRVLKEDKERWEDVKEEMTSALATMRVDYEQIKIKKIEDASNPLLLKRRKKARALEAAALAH

By IC50 is commonly meant the concentration needed to halve the response being measured. Regarding `CCOCc1cnc(Cl)nc1-c1ccc2c(ccc3sc4c(c32)NC[C@@H](C)NC4=O)n1` [US20240190890, Compound I-3], the IC50 came to 107 nM. Regarding `C=Cc1nc(-c2ccc3c(ccc4sc5c(c43)NC[C@@H](C)NC5=O)n2)cc(N2CCN(C)CC2)n1` [US20240190890, Compound I-18], the IC50 turned out to be 4 nM. `C=Cc1cc(-c2ccc3c(ccc4sc5c(c43)NC[C@@H](C)NC5=O)n2)cc(C=C)n1` [US20240190890, Compound I-80]: the IC50 was 574 nM.

In the case of `C=C(CN1CCOCC1)c1cc(-c2ccc3c(ccc4sc5c(c43)NC[C@@H](C)NC5=O)n2)ncn1` [US20240190890, Compound I-139], the IC50 turned out to be 2 nM. Turning to `C=Cc1cc(-c2ccc3c(ccc4sc5c(c43)NC[C@@H](C)NC5=O)n2)cc(N2CC(C)OC(C)C2)n1` (stereo not given in full) [US20240190890, Compound I-201], the IC50 was 73 nM.
